These results are taken from patent publication US20140315869A1, “THERAPEUTIC USES OF ECTOINE” (BITOP AG, priority 2011, published 2014).

The test system of one assay is neutrophils. Put plainly: Neutrophil inflammation reactions in rats with carbon nanoparticles intratracheally administered. It is filed as in vivo. From the text:
Neutrophil inflammation reactions were examined in rats with carbon nanoparticles intratracheally administered. This involved administration both with and without ectoine. […] In the first place, the liberation of cinc-1 is initially due to epithelial cells and macrophages, whereas later on the liberation caused by the great amount of ultimately existing neutrophils dominates.
It thus follows that ectoine cannot only be used on a preemptive basis but also for the treatment of an already existing inflammation.
Carbon nanoparticles (CNP, 14 nm, Printex 90, Degussa, Frankfurt, Germany) were suspended in a phosphate buffered salt solution (PBS) by means of ultra-sonic treatment. Similarly, a 0.1 and a 1 mM solution of ectoine was produced in PBS. 0.4 ml of the CNP particle suspension was administered intratracheally to Fisher 344 female rats. Treatment with 0.4 ml of the ectoine solutions, respectively PBS took place after one and two days. The rats were sacrificed on the third day, their lungs purged with 4×5 ml of PBS each. The cells of the individual animals were suspended in 1 ml of PBS and centrifuged. The pellets were washed with PBS once and resuspended in 300 μl of hypotonic solution (0.1% sodium citrate, 0.1% triton×100) containing 50 μg/ml of propidium iodide (PI). To determine the rate of apoptosis a fluorescence measurement was finally performed.

The test system of the next assay is human neutrophils. In words: Apoptosis rate of isolated human neutrophil granulocytes (sub-G1 cells, propidium iodide, flow cytometry). Conditions: for prevention of the reduction of the apoptosis rate caused by CNP with or without budenoside / background apoptosis rate: Experiment 7, 1 mM test substance, 16 h; for prevention of the reduction of the apoptosis rate caused by CNP with or without budenoside: young volunteers; for background apoptosis rate: neutrophils from young volunteers. It is filed as cell-based. On the procedure:
The effect of ectoine on the apoptosis was investigated by way of human neutrophils. Neutrophils from young, healthy donors (3 male and 2 female) were isolated and treated with the amounts of ectoine (mM) indicated. Treatment was carried out with ectoine alone (open columns) and with 33 μg/ml of CNP (black columns). Ectoine was not administered in the control group (C).
The apoptotic cells were quantified in the following manner: The neutrophils were suspended in 300 μl of hypotonic solution containing propidium iodide (PI). The fluorescence of PI was determined by means of flow cytometry (FACScan cytometer, BD Biosciences). The results are shown as percentage of hypodiploidal DNA (sub-G1), corresponding to fragmented DNA which is characteristic of apoptotic cells.
The effect of ectoine on the apoptosis was investigated by way of human neutrophils. Neutrophils of young, healthy donors (3 male and 2 female) were isolated and pretreated for 2 hours with PBS (dark columns) and with 1 mM of ectoine (light columns). Subsequently, treatment took place with 33 μg/ml of carbon nanoparticles (ufCB: ultrafine carbon black), 300 nM LTB4, 20 ng/ml GM CSF or 1 μM of dexamethasone, respectively no treatment with proinflammatory factors. (†: significant difference with respect to control group; *: significant difference with respect to neutrophils treated with proinflammatory factors and PBS only; quantification of the apoptotic cells analogous to Experiment 2).
The neutrophil granulocytes were pretreated for 2 hours with 1 mM of ectoine resp. PBS following which treatment took place for 16 hours with 33 μg/ml CNP, 300 nM LTB4, 20 ng/ml GMCSF or PBS. […] (dark columns: pretreatment with ectoine; light columns: pretreatment with PBS; *: significant difference with respect to control group without CNP or inflammation mediators; §: significant difference with respect to the treatment without ectoine; quantification of the apoptotic cells analogously to Experiment 2).
For Experiments 5 to 7 neutrophil granulocytes were obtained from blood samples. Groups 1 and 2 consisted of persons who participated in a current patient study. Male patients (aged 40 to 80 years) with stable COPD history (GOLD III/IV) and healthy control patients from an identical age group.
The influence of ectoine in combination with the corticosteroid budesonide on the apoptosis rates of neutrophils is illustrated in FIG. 5. Sub-G1-cells were measured after propidium iodide coloration (FACS-flow cytometry). Cells: primary, peripheral neutrophils. Isolation of the neutrophils by Percoll® centrifugation. Cultivation of 2×10^6 neutrophils in the presence of 33 μg/ml CNP, 300 nM LTB4, 20 ng/ml GM-CSF, 1 μM budesonide, 1 mM ectoine and combinations thereof for 16 h. FIG. 5 A: cells cumulated from all samples (n=15), FIG. 5 B: cells from COPD patients (n=5), FIG. 5 C: cells from healthy age control group (n=5), FIG. 5 D: cells from young volunteers (n=5).
Sub-G1-cells were measured after propidium iodide coloration (FACS-flow cytometry). Cells: primary, peripheral, human neutrophils. Isolation of the neutrophils by Percoll® centrifugation and cultivation of 2×10^6 neutrophils in the presence of 33 μg/ml CNP, 1 μM budesonide, 1 mM ectoine, 1 mM urea, 1 mM ectoine amide and combinations thereof for 16 h. The cells were obtained from young volunteers (group 3), n=5, bud=budenoside. Two additional test substances (urea and the ectoine amide of 2-hydroxy-5-aminobenzoic acid) were examined to check whether they were capable of inhibiting anti-apoptotic effects on neutrophils.
On the technique in general: A flow cytometer gives signals particle by particle.

The next assay has as its system protein kinase B (Akt). Put plainly: Akt phosphorylation in human primary peripheral neutrophils (western blot). The assay is classed as cell-based. Conditions: Experiment 6; 1 mM ectoine with 1 μM budesonide, also in the presence of 33 μg/ml CNP, 6 h. On the procedure:
(§1) The influence of ectoine in combination with budenoside on anti-apoptotic signals can be seen from FIG. 6. With selected samples of neutrophils relevant signals were detected via protein kinase B (Akt) and Mcl-1 by measurement of the Akt phosphorylation and the Mcl-1 protein level, with human primary peripheral neutrophils being used as cells. Isolation of the neutrophils by Percoll® centrifugation, the cultivation of 2×10^6 neutrophils in the presence of 33 μg/ml CNP, 1 μM budesonide, 1 mM ectoine and combinations thereof for 6 h. A protein isolation, western blot, luminescence on x-ray films was effected of material from each 3 COPD patients and 3 persons from the corresponding age control group.
(In general: A western blot detects proteins with antibodies after separation by electrophoresis.)

Another assay relates to Mcl-1. Put plainly: Mcl-1 protein level in human primary peripheral neutrophils (western blot). The assay is classed as cell-based. Conditions: Experiment 6; 1 mM ectoine with 1 μM budesonide, also in the presence of 33 μg/ml CNP, 6 h. The protocol:
as §1

[1] abbreviates: ectoine administered repeatedly after inflammation reaction triggered off several times.

Molecules are shown by their SMILES.

In the case of `CC1=NCC[C@@H](C(=O)O)N1` [ectoine, (S)-2-methyl-1,4,5,6-tetrahydropyrimidine-4-carboxylic acid], in the assay with neutrophils (setting [1]), the amount of neutrophils result was “diminishing of the amount of neutrophils” and the cinc-1 level result is “lowering of the cinc-1 level”. The “liberation of cinc-1” value in the assay with neutrophils (rats, carbon nanoparticles intratracheally with ectoine, after two days) is “reduction of the liberation of cinc-1”. The amount of neutrophils result with neutrophils (rats, carbon nanoparticles intratracheally with ectoine, after two days, in comparison to the placebo group) is reported as “significant reduction of the amount of neutrophils”. The “effect of ectoine given after commencement of the inflammatory reaction” value with neutrophils (two doses, one and two days after commencement of the inflammatory reaction) was “virtually had the same effect as an ectoine administration at the time the inflammatory reaction was triggered”. Also, in the assay with human neutrophils (Experiment 2, neutrophils from young healthy donors, 33 μg/ml CNP, significant amounts of ectoine), the “reduction of the apoptosis rate caused by CNP” value is “could virtually be eliminated”. Besides, in the assay with human neutrophils (Experiment 4, COPD and non-COPD patients, 2 h pretreatment 1 mM ectoine, then 16 h 33 μg/ml CNP, 300 nM LTB4 or 20 ng/ml GMCSF), the “apoptosis rate reduced by inflammatory stimulants” value is “resulted in the apoptosis rate to be restored significantly”. The “anti-apoptotic effect of proinflammatory substances combined with budesonide, with ectoine” value in the assay on human neutrophils (Experiment 5, CNP, LTB4, GM-CSF combined with 1 μM budesonide, 1 mM ectoine) was “the anti-apoptotic effect was successfully prevented”. Further, in the assay on human neutrophils (Experiment 5, pretreatment 1 mM ectoine, 1 μM budesonide, no proinflammatory substances, all groups), the “anti-apoptotic effect of budesonide, with ectoine” value is “obviates the anti-apoptotic effect of the budesonide significantly”. Also, the “compensation of the reduction of the apoptosis rate due to pro-inflammatory factors” value in the assay on human neutrophils (isolated human neutrophil granulocytes, CNP, LTB4 or GM-CSF) was “can be compensated depending on concentration at least partially”. Further, in the assay with human neutrophils (neutrophils without previous treatment with pro-inflammatory factors), the “apoptosis rate, ectoine alone” value is given as “did not result in an increase of the apoptosis rate”. The “Akt phosphorylation, ectoine against budesonide effect” value in the assay with protein kinase B (Akt) is “capable of counteracting this effect”. The “Mcl-1 protein level, ectoine against budesonide effect” value in the assay on Mcl-1 is recorded as “capable of counteracting this effect”.
As for `NC(N)=O` [urea, reference compound], the “prevention of the reduction of the apoptosis rate caused by CNP with or without budenoside” value in the assay with human neutrophils (33 μg/ml CNP, 1 μM budesonide) is recorded as “this could not be achieved”. Besides, the background apoptosis rate result in the assay on human neutrophils is recorded as “did not have an influence on the background apoptosis rate”.
In the case of `CC1=NCCC(C(=O)Nc2ccc(O)c(C(=O)O)c2)N1` (stereo not drawn) [2-methyl-1,4,5,6-tetrahydropyrimidine-4-carboxylic acid amide of 2-hydroxy-5-aminobenzoic acid], the “prevention of the reduction of the apoptosis rate caused by CNP with or without budenoside” value in the assay with human neutrophils (33 μg/ml CNP, 1 μM budesonide) was “able to prevent the reduction of the apoptosis rate”. In addition, the background apoptosis rate entry in the assay on human neutrophils was “did not have an influence on the background apoptosis rate”. Moreover, the “effectiveness compared with ectoine” value with human neutrophils (cf. FIG. 7) is “effectiveness comparable to ectoine itself”.
